# Test results from patent US7208162B2, “Combination therapy of respiratory diseases using antibodies and anti-inflammatory agents” (priority 2000, dated 2007).
# Tests used:
# [1] = system: Respiratory Syncytial Virus; conditions: systemically administered; 147 infants; cited from earlier work
# [2] = cited from earlier work
# RSV [3] = conditions: aerosol inhalation; versus untreated patients; cited from earlier work
# [4] = system: respiratory syncytial virus (RSV/Long); test: Example 3: different steroids with the same antibody in RSV pneumonia, arithmetic mean pathology scores; assay type: in vivo; conditions: 8 mg/kg/day i.p. days 3-5 plus antibody 15 mg/kg day 3; day 6
# Experimental: The following procedure was performed using inbred cotton rats (Sigmodon hispidus). On day 0, young adult cotton rats were divided into 8 groups of 4 animals each (total: 32 animals). Identification of each group in terms of treatment was as follows:
# In each case (Groups B–H), approximately 10^6.5 plaque forming units (pfu) of respiratory syncytial virus (RSV/Long) was administered intranasally in a volume of 100 μl.
# (§1) On day 3, treatment began as described above for each of the groups. The animals were each weighed and treated according to the indicated regimen. Antibody was palivizumab wherein 15 mg/kg was the dose used in each case. All dosages are given as mg per kg of body weight.
# On day 4, animals in groups D through H were treated as described for day 3 but no additional antibody was given.
# On day 5, animals in groups D through H were treated as on […] (again with no additional antibody).
# On day 6, all animals were sacrificed. Lungs from all of the animals were inflated with formalin for histological examination.
# [5] = system: respiratory syncytial virus (RSV/Long); test: Example 1: antibody/triamcinolone therapy of RSV-infected cotton rats (virus titer, pulmonary pathology); assay type: in vivo; conditions: treatment i.m. beginning 3 days post-infection; antibody 15 mg/kg, triamcinolone 1-16 mg/kg; lungs days 4 and 6
# Experimental: The following procedure was performed using inbred cotton rats (Sigmodon hispidus). On day 0, young adult cotton rats were divided into 9 groups of 12 animals each (total: 108 animals). Identification of each group in terms of treatment was as follows:
# In each case (Groups B–I), approximately 10^6.5 plaque forming units (pfu) of respiratory syncytial virus (RSV/Long) was administered intranasally in a volume of 100 μl.
# as §1, with “regimen. All antibody and steroid administration was intramuscular (i.e., systemic) and both antibody and steroid were administered together.” for “regimen.”
# On day 4, six animals from each group were sacrificed, their lungs bisected, with half being homogenized for viral quantitation and the other half being inflated with formalin for histological examination. The remaining six animals in each of groups D through I were treated with the dose of triamcinolone indicated above but no additional antibody was given.
# On day 5, the remaining six animals in each group were treated again as described for day 4 (again with no additional antibody).
# On day 6, the remaining 6 animals from each group were sacrificed and data collected as described for day 4. Thus, their lungs were bisected, with half being homogenized for viral quantitation and the other half being inflated with formalin for histological examination.
# Results of these experiments are shown graphically in FIGS. 2(a through e).
# This experiment was duplicated on a separate population of 108 cotton rats divided into groups and treated as just described with similar results reported in FIG. 3 (FIG. 3(a) showing virus titer and FIG. 3(b) showing composite pathology score). The conclusions herein are the result of data from both experiments. The results for composite pathology scores are shown in FIG. 1 reflecting the results of both sets of experiments.
# RSV [6] = test: Example 5: lung pathology score (0 to 100) on day 6 after MAb and glucocorticoid therapy; assay type: in vivo, cotton rats
# Experimental: Twenty eight (28) cotton rats (CRs) were infected intranasally with 6.5 logs of RSV (as 0.1 ml of inoculum), leading to dramatic lung pathology 6 days post-infection (PI). On day 3 PI (the peak for viral infection), 7 groups of 4 animals received one of the following: no therapy, or intramuscular (i.m.) MAb (15 mg/kg) (MAb=palivizumab) i.m. triamcinolone (TRI;Steris Laboratories, Phoenix, Ariz.) at 16 mg/kg and MAb; i.p. methylprednisolone (MED; Solu-Medrol® Pharmacia and Upjohn, Kalamazoo, Mich.) 4 mg/kg and MAb; i.p. MED at 8 mg/kg and MAb; i.p. dexamethasone (DEX; Elkins-Sinn, Cherry Hill, N.J.) 0.6 mg/kg and MAb; or i.p. DEX 1.2 mg/kg and MAb (TRI and DEX once daily, MED divided into every 6 hours). All glucocorticoids were repeated on days 4 and 5. The dose, frequency and route of administration of dexamethasone and methylprednisolone were extrapolated from human use recommendations.
# On day 6, all groups (including 4 uninfected CRs were sacrificed (in general by carbon dioxide asphyxiation). For pathology, tissues were inflated and formalin fixed and coronal paraffin sections were cut at 4 μm thickness. Lung tissue slides scored on a 0 (normal) to 100 (marked pathology) severity scale, for bronchiolitis, alveolitis, and interstitial pneumonia.
# Results are shown graphically in FIG. 7A and summarized as follows in terms of pathology score (0 to 100).
# [7] = MAb 15 mg/kg i.m. day 3, TRI 16 mg/kg i.m. days 3-5
molecule,measurement,setting,value
C[C@]12C=CC(=O)C=C1CC[C@@H]1[C@@H]2[C@@H](O)C[C@@]2(C)[C@H]1CC[C@]2(O)C(=O)CO [prednisolone],effectiveness in infant RSV,[1],ineffectiveness
NC(=O)c1ncn([C@@H]2O[C@H](CO)[C@@H](O)[C@H]2O)n1 [ribavirin],bioavailability,[2]; given orally,about 45%
same,time of peak concentrations in plasma,"[2]; in vivo, po",1 to 2 h
same,level of secondary infection following cessation of treatment,RSV [3],significantly higher than in untreated patients
C[C@H]1C[C@@H]2[C@H]([C@@H](O)C[C@@]3(C)[C@H]2CC[C@]3(O)C(=O)COC(=O)CCC(=O)[O-])[C@@]2(C)C=CC(=O)C=C12.[Na+] [solumedrol],pulmonary pathology (arithmetic mean pathology scores) compared with triamcinolone,[4],worked almost as well as triamcinolone
C[C@]12C=CC(=O)C=C1CC[C@H]1[C@@H]3C[C@@H](O)[C@](O)(C(=O)CO)[C@@]3(C)C[C@H](O)[C@@]12F [triamcinolone],pulmonary pathology,[5],positive effect on pulmonary pathology
same,viral clearance (RSV titer in lungs),[5],retarded viral clearance
"palivizumab: anti-RSV IgG monoclonal antibody, commercially palivizumab, sequence described as Medi-493 (U.S. Pat. No. 5,824,307 FIGS. 7 and 8)",pulmonary pathology,[5],no significant effect on pulmonary pathology
same,viral clearance (RSV titer in lungs),[5],accelerated viral clearance
same,pathology (summary of Table 1),RSV [6],did not reduce pathology
same,Alveolitis pathology score (0 to 100),RSV [6]; [7],38
same,Bronchiolitis pathology score (0 to 100),RSV [6]; [7],75
same,Interstitial Pneumonia pathology score (0 to 100),RSV [6]; [7],49
same,lung tissue histology (inflammatory infiltrates),"RSV [6]; palivizumab day 3, methylprednisolone days 3, 4 and 5, hematoxylin and eosin, 64X",Little or no improvement
